Assay results as given in US6914052B2, “Selective anti-viral nucleoside chain terminators” (The Trustees of Boston College, priority 2001, dated 2005).

Columns and labels:
Type in all cases: biochemical
Settings in all cases: single triphosphate offered to enzyme/primer/template complex, template dG; 37° C. for 45 min; denaturing PAGE
human polymerase α = target: T1, human polymerase α (Homo sapiens, UniProt P09884); experiment: Primer extension / chain termination with human polymerase α
T1 sequence (P09884 1-1462): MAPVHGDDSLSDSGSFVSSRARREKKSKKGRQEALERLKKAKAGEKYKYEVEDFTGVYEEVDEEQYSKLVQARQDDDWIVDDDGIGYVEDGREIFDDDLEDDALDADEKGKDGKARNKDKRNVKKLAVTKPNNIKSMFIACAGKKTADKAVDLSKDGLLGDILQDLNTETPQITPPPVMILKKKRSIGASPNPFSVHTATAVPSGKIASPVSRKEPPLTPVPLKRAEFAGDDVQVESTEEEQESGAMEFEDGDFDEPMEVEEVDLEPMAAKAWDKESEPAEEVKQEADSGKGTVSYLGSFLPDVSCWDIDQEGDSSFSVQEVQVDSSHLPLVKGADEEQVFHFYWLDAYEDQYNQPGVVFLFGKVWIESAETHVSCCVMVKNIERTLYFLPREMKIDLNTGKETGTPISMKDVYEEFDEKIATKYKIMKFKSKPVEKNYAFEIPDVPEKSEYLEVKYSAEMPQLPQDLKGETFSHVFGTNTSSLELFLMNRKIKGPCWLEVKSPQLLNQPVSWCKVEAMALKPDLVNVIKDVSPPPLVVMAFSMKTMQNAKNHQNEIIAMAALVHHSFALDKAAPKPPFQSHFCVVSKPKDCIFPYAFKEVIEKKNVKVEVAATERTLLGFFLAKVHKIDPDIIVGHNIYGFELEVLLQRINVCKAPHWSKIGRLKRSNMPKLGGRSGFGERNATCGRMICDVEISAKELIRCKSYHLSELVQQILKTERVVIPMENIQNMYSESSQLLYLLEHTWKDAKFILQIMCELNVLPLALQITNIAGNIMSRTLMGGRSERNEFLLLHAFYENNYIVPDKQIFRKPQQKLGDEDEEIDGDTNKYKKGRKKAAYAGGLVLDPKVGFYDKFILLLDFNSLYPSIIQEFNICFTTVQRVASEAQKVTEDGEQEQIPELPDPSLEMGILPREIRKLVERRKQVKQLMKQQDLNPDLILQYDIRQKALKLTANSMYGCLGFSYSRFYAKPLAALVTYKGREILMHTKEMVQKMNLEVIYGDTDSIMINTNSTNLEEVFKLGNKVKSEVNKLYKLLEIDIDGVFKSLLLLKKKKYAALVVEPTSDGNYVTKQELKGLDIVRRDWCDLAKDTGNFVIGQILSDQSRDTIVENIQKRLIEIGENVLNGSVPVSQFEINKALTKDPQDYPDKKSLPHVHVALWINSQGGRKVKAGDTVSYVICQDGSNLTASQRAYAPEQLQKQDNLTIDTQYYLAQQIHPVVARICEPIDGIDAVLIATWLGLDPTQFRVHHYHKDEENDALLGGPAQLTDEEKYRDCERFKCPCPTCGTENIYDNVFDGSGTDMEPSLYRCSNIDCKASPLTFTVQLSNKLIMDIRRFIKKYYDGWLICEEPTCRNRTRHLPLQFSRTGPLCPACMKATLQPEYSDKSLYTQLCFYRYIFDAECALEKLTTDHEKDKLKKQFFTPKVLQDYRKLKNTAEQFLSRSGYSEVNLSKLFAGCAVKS
Description: (§1) FIG. 13 illustrates the results for polymerases α and γ.
(§2) The following buffers were used for each polymerase: DNA polmerase α, 50 mM Tris.HCl pH 8.0, 5 mM Mg(AcO)2, 1 mM DTT, 1 mM spermidine; DNA pol β 50 mM Tris.HCl pH 8.0, 10 mM MgCl2, 1 mM DTT; DNA Polymerase γ 50 mM Tris.HCl pH 7.5, 100 mM NaCl, 2.5 MM MgCl2; HIV RT 50 mM Tris.HCl pH 8.5, 10 mM MgCl2, 40 mM KCl, 1 mM DTT. Template, primer and the corresponding buffer were mixed and heated to 100° C. for 1 min, allowed to cool to room temperature then placed on ice for 30 min. Once the template and primer had been allowed to anneal the polymerase was added. The appropriate amount of template-primer mixture was added to a vial containing water and the NTP(s) at the desired concentration. Typical reaction volumes were 10 μL. The reactions were incubated at 37° C. for 45 min. The reactions were quenched using Na-EDTA, heated at 100° C. for 1 min, and then flash frozen in liquid N2. Primer extensions were analyzed by standard methods by denaturing Polyacrylamide Gel Electrophoresis (PAGE).
(§3) Analytical polyacrylamide gel electrophoresis was performed using a 38×50 cm Sequi-Gen GT sequencing cell with a thickness of 0.4 mm and 15% monomer (acrylamide:bisacrylamide 19:1). Gels were run using 90 mM Tris-Borate 1 mM EDTA buffer (pH 8.3). Gels were imaged on Phosphorimager: 425 from Molecular Dynamics (Sunnyvale, Calif.).

[1] = target: HIV reverse transcriptase (Human immunodeficiency virus type 1 group M subtype B, UniProt P04585); experiment: Primer extension / chain termination with HIV reverse transcriptase
Excerpt: (§4) The nucleoside incorporation experiment for one of the modified nucleotide analog compounds of the present invention is illustrated in FIGS. 12 and 13. […] The first nucleoside added to the primer should be a C residue (coded by the G residue of the template). A single triphosphate of dC or the above analog is offered to the enzyme/primer/template complex. […] In the remaining lanes of the gel, experiments have been designed with only the analog dd2ApyTP present with the primer template complex.
as §2, with “The reactions were quenched using Na-EDTA, heated at 100° C. for 1 min, and then flash frozen in liquid N2.” left out, “(PAGE). […]” for “(PAGE).”

human polymerase β = human polymerase β (Homo sapiens, UniProt P06746); experiment: Primer extension / chain termination with human polymerase β
Excerpt: as §4
as §2, with “The reactions were quenched using Na-EDTA, heated at 100° C. for 1 min, and then flash frozen in liquid N2.” left out, “(PAGE). […]” for “(PAGE).”

human polymerase γ = target: T2, human polymerase γ (Homo sapiens, UniProt P54098); experiment: Primer extension / chain termination with human polymerase γ
T2 sequence (P54098 1-1239): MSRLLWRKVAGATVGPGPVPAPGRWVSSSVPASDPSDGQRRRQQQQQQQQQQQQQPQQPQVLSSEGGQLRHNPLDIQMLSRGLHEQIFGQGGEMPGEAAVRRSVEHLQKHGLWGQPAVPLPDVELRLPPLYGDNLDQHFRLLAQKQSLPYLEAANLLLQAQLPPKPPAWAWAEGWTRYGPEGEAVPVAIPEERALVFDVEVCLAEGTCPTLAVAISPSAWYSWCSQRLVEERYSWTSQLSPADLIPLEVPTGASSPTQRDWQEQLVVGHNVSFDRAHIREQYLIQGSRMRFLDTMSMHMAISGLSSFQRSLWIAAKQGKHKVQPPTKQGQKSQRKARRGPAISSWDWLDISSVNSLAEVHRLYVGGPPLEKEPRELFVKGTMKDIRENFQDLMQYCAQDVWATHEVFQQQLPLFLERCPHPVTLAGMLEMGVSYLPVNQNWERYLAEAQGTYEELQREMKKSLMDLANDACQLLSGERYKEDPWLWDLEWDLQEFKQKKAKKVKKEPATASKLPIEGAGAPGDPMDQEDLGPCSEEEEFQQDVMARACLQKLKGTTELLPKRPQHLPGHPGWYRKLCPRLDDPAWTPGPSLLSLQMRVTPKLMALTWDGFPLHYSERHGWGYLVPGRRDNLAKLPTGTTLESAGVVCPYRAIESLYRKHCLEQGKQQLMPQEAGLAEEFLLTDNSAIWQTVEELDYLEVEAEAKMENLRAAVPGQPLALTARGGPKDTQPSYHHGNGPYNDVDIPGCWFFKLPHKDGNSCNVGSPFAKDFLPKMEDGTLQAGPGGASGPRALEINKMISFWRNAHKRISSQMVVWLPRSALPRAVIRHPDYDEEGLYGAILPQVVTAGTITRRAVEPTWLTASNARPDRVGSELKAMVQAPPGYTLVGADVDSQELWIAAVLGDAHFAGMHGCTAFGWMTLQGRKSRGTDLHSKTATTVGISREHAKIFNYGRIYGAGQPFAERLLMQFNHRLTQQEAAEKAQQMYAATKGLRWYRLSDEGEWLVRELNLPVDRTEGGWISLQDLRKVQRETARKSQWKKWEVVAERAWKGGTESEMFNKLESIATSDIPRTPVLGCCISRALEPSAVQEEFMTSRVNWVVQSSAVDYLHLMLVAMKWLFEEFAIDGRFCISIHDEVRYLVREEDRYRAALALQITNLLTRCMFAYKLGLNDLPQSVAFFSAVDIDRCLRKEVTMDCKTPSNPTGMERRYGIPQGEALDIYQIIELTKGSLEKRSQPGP
Description: as §1, §2, §3

With `Nc1ccn([C@H]2C[C@H](O)[C@@H](COP(=O)(O)OP(=O)(O)OP(=O)(O)O)O2)c(=O)n1` [dCTP] the “incorporation of the triphosphate into the primer (primer extension, gel, FIG. 13 left)” value (human polymerase α) was “normal incorporation into the primer”, the “incorporation of the triphosphate into the primer (primer extension, gel, FIG. 12 left)” value [1] was “two additions of the nucleoside” and the “incorporation of the triphosphate into the primer (primer extension, gel, FIG. 12 right)” value (human polymerase β) was “incorporated by human polymerase β in the normal fashion”. For the same molecule, the “incorporation of the triphosphate into the primer (primer extension, gel, FIG. 13 right)” value (human polymerase γ) was “normal incorporation into the primer”.
